From patent US5962314A, “Calcium receptor-active molecules” (priority 1997, dated 1999) come the findings set out here.

In test [1] the test system is PTH. In words: PTH levels in rats. It counts as in vivo, rat. The following applies: NPS R-568 oral, rats. The source says:
The fall in blood Ca^2+ at this time was paralleled by a proportional fall in the levels of blood total calcium.

Test [2] deals with T1, parathyroid cell calcium receptor (Bos taurus, UniProt P35384).
T1 sequence (P35384 20-1085): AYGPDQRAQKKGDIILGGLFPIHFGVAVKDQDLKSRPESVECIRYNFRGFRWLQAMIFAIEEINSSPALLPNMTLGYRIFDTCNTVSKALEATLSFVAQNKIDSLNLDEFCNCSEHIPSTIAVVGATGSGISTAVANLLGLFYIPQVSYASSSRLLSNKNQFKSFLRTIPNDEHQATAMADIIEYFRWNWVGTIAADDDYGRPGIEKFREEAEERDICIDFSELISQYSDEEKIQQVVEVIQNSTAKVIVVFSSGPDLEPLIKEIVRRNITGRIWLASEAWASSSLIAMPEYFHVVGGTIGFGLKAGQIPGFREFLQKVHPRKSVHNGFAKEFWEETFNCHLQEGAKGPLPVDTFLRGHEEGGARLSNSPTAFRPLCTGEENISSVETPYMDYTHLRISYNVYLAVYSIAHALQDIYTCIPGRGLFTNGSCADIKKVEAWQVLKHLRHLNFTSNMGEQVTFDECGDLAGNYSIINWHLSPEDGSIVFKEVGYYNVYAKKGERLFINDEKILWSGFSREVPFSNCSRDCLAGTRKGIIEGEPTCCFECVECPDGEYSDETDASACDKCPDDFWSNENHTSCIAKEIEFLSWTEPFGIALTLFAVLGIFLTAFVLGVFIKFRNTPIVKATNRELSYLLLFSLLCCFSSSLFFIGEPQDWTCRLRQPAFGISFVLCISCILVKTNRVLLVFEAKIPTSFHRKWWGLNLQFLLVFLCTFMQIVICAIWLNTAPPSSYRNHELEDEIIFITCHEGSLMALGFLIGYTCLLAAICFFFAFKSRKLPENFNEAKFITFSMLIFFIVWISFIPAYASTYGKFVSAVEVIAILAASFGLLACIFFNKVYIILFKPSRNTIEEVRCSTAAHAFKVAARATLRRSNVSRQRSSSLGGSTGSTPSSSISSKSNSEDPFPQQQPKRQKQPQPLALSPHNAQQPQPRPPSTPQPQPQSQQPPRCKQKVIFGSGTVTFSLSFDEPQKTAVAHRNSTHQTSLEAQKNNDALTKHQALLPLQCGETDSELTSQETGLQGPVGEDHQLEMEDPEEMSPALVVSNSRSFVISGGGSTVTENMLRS
In words: Cl- current in Xenopus oocytes injected with bovine parathyroid cell mRNA. Details: Whole pieces of gland were used to prepare mRNA that directs the expression of the calcium receptor in Xenopus oocytes; expressed in transfected cells; host or cells: Xenopus laevis oocytes injected with parathyroid poly(A)+ mRNA. It counts as cell-based. The settings on record: oocytes expressing parathyroid calcium receptor; fendiline 100 μM. Here is the method:
Following incubation, an oocyte was placed into a 100-μl plastic chamber and superfused with MBS at a flow rate of 0.5 ml/min using a peristaltic pump. Test molecules or inorganic polycations were added by rapidly moving the tubing into different buffers. Recording and current-passing electrodes were constructed from thin-wall capillary tubing pulled to a resistance of 1-3 Mohms and filled with 3 M KCl. […] Currents were recorded directly onto a strip chart recorder.

For test [3], the system named is cyclic AMP. It counts as cell-based, bovine.
Protocol: Cells were incubated as above for PTH secretion studies and at the end of the incubation, a 0.15-ml sample was taken and transferred to 0.85 ml of hot (70° C.) water and heated at this temperature for 5-10 minutes. The tubes were subsequently frozen and thawed several times and the cellular debris sedimented by centrifugation. Portions of the supernatant were acetylated and cyclic AMP concentrations determined by radioimmunoassay.
Each value is the mean±SEM of three experiments.

Entries after “also recorded” stand apart in the source; their conditions may differ.

Consider `COc1cccc([C@@H](C)NCCCc2ccccc2Cl)c1` [NPS R-568, (R)-(+)-N-[3-(2-chlorophenyl)propyl]-α-methyl-3-methoxybenzylamine], for which, in test [1], the “effect on PTH, oral” value is “rapid, dose-dependent decrease in the plasma levels of PTH; also recorded: decreases in the levels of serum PTH”. Moreover, the “effect on Cl- current / intracellular Ca2+” value in test [2] is “potent molecule active on Xenopus oocytes expressing the parathyroid cell calcium receptor”.
Regarding `NC[C@@H]1O[C@H](O[C@H]2[C@@H](O)[C@H](O[C@@H]3[C@@H](O)[C@H](N)C[C@H](N)[C@H]3O[C@H]3O[C@H](CN)[C@@H](O)[C@H](O)[C@H]3N)O[C@@H]2CO)[C@H](N)[C@@H](O)[C@@H]1O` [Neomycin], the “effect on isoproterenol-induced increases in cyclic AMP” value in test [3] is listed as “depressed isoproterenol-induced increases in cyclic AMP”.
